Measured values reported in patent US11731962B2, “LpxC inhibitor and methods of making” (priority 2020, dated 2023).
Converted amounts (≈) assume the structure as drawn. Like-named read-outs stand apart in the source and are kept apart here.

Assays:
Type in all cases: cell-based
B. breve HM 412 = assay: Bacterial susceptibility testing, broth microdilution MIC; settings: Bifidobacterium breve, HM412, 35° C., 18-24 h
Method: (§1) Minimal inhibitory concentrations (MIC) against a variety of gram-negative and gram-positive bacterial strains were determined by the broth microdilution method in accordance with the Clinical and Laboratory Standards Institute (CLSI) guidelines. In brief, organism suspensions were adjusted to a 0.5 McFarland standard to yield a final inoculum between 3×10^5 and 7×10^5 colony-forming units (CFU)/mL. Drug dilutions and inocula were made in sterile, cation adjusted Mueller-Hinton Broth (Beckton Dickinson). An inoculum volume of 100 μL was added to wells containing 100 μL of broth with 2-fold serial dilutions of drug. All inoculated microdilution trays were incubated in ambient air at 35° C. for 18-24 h. Following incubation, the lowest concentration of the drug that prevented visible growth (OD600 nm<0.05) was recorded as the MIC. Performance of the assay was monitored by the use of laboratory quality-control strains and levofloxacin, a compound with a defined MIC spectrum, in accordance with CLSI guidelines.

[1] = system: B. thuringiensis ATCC 35646; assay: as above; settings: Bacillus thuringiensis, ATCC35646, 35° C., 18-24 h
Method: as §1

C. difficile ATCC 700057 = assay: as above; settings: Clostridioides difficile, ATCC700057, 35° C., 18-24 h
Method: as §1

C. jeikeium NCTC 11914 = assay: as above; settings: Corynebacterium jeikeium, NCTC11914, 35° C., 18-24 h
Method: as §1

C. sordellii ATCC 9714 = assay: as above; settings: Paraclostridium sordellii, ATCC9714, 35° C., 18-24 h
Method: as §1

E. coli ATCC 25922 = assay: as above; settings: Escherichia coli, ATCC25922
Method: as §1

E. faecalis ATCC 29212 = assay: as above; settings: Enterococcus faecalis, ATCC29212, 35° C., 18-24 h
Method: as §1

K. pneumoniae ATCC 13883 = assay: as above; settings: Klebsiella pneumoniae, ATCC13883
Method: as §1

[2] = system: L. monocytogenes ATCC 7644; assay: as above; settings: Listeria monocytogenes, ATCC7644, 35° C., 18-24 h
Method: as §1

L. rhamnosus ATCC 53103 = assay: as above; settings: Lacticaseibacillus rhamnosus, ATCC53103, 35° C., 18-24 h
Method: as §1

[3] = system: N. cyriacigeorgica complex NBQAS 3295; assay: as above
Method: as §1

P. acnes ATCC 6919 = assay: as above; settings: Cutibacterium acnes, ATCC6919, 35° C., 18-24 h
Method: as §1

P. anaerobius DSM 20357 = assay: as above; settings: Peptostreptococcus anaerobius, DSM20357, 35° C., 18-24 h
Method: as §1

S. aureus ATCC 29213 = assay: as above; settings: for MIC: Staphylococcus aureus, ATCC29213, S. aureus ATCC 29213, broth microdilution, 35° C., 18-24 h
Method: as §1

[4] = system: S. epidermidis ATCC 35984; assay: as above; settings: Staphylococcus epidermidis, ATCC35984, 35° C., 18-24 h
Method: as §1

S. pneumoniae ATCC 49619 = assay: as above; settings: Streptococcus pneumoniae, ATCC49619, 35° C., 18-24 h
Method: as §1

S. pyogenes ATCC 12384 = assay: as above; settings: Streptococcus pyogenes, ATCC12384, 35° C., 18-24 h
Method: as §1

[5] = system: gram-negative and gram-positive bacterial strains; assay: Bacterial susceptibility testing, whole panel; settings: summary of Table 1
Method: as §1

[6] = E. coli ATCC 25922, broth microdilution, 35° C., 18-24 h, read-out: MIC

Compound | MIC (B. breve HM 412) | MIC [1] | MIC (C. difficile ATCC 700057) | MIC (C. jeikeium NCTC 11914) | MIC (C. sordellii ATCC 9714) | MIC (E. coli ATCC 25922; [6]) | MIC (E. faecalis ATCC 29212) | MIC [2] | MIC (L. rhamnosus ATCC 53103) | MIC [3] | MIC (P. acnes ATCC 6919) | MIC (P. anaerobius DSM 20357) | MIC (S. aureus ATCC 29213) | MIC [4] | MIC (S. pneumoniae ATCC 49619) | MIC (S. pyogenes ATCC 12384) | other results
N#CC1CN(C[C@@H](Cc2ncnc(O)c2O)c2ccc(C#Cc3ccc(CN4CCOCC4)cc3)cc2)C1 [Compound A, (S)-1-(3-(5,6-dihydroxypyrimidin-4-yl)-2-(4-((4-(morpholinomethyl)phenyl)ethynyl)phenyl)propyl)azetidine-3-carbonitrile] | > 64 µg/mL | > 64 µg/mL | > 64 µg/mL | > 64 µg/mL | > 64 µg/mL | 0.5 µg/mL (≈ 0.981 µM) | > 64 µg/mL | > 64 µg/mL | > 64 µg/mL | > 64 µg/mL | > 64 µg/mL | > 64 µg/mL | > 64 µg/mL | > 64 µg/mL | > 64 µg/mL | > 64 µg/mL | MIC (E. coli ATCC 25922; E. coli cell lines, strain not named, read-out: MIC values): < 1 µg/mL; MIC (K. pneumoniae ATCC 13883; K. pneumoniae ATCC 13883, broth microdilution, 35° C., 18-24 h, read-out: MIC): 0.5 µg/mL (≈ 0.981 µM); MIC (K. pneumoniae ATCC 13883; K. pneumoniae cell lines, strain not named, read-out: MIC values): < 1 µg/mL; inhibition of gram-positive bacterial cell lines (S. aureus ATCC 29213; gram-positive bacterial cell lines, such as S. aureus): does not inhibit; selectivity for gram-negative bacteria over gram-positive bacteria [5]: high selectivity
C[C@H]1COc2c(N3CCN(C)CC3)c(F)cc3c(=O)c(C(=O)O)cn1c23 [Levofloxacin] | 4 µg/mL (≈ 11.1 µM) | 0.125 µg/mL (≈ 0.346 µM) | 4 µg/mL (≈ 11.1 µM) | 1 µg/mL (≈ 2.77 µM) | 1 µg/mL (≈ 2.77 µM) | 0.03 µg/mL (≈ 0.083 µM) | 1 µg/mL (≈ 2.77 µM) | 1 µg/mL (≈ 2.77 µM) | 1 µg/mL (≈ 2.77 µM) | 8 µg/mL (≈ 22.1 µM) | 0.5 µg/mL (≈ 1.38 µM) | 0.5 µg/mL (≈ 1.38 µM) | 0.25 µg/mL (≈ 0.692 µM) | 0.125 µg/mL (≈ 0.346 µM) | 1 µg/mL (≈ 2.77 µM) | 0.5 µg/mL (≈ 1.38 µM) | –
C[C@@H](O)[C@H]1C(=O)N2C(C(=O)O)=C(S[C@@H]3CN[C@H](C(=O)N(C)C)C3)[C@H](C)[C@H]12 [Meropenem] | > 1 µg/mL | 0.06 µg/mL (≈ 0.156 µM) | 1 µg/mL (≈ 2.61 µM) | > 1 µg/mL | 0.015 µg/mL (≈ 0.0391 µM) | 0.03 µg/mL (≈ 0.0782 µM) | > 1 µg/mL | – | > 1 µg/mL | > 1 µg/mL | 0.06 µg/mL (≈ 0.156 µM) | > 1 µg/mL | – | > 1 µg/mL | 0.06 µg/mL (≈ 0.156 µM) | 0.008 µg/mL (≈ 0.0209 µM) | activity against gram-positive bacteria [5]: do have activity against various strains of gram-positive bacteria
